Reference: patent US20100151104A1, “Preservative System For Beverages Based On Combinations Of Trans-Cinnamic Acid, Lauric Arginate, And Dimethyl Dicarbonate” (priority 2008, published 2010)

Columns and labels:
[1] = tested on: mold spores (Byssochlamyus nieva and Paecilomyces variotti); experiment: Germination of bio-indicator mold spores with ascorbic acid and potassium sorbate; format: cell-based
Description: Ascorbic acid may be incorporated as part of the microbiological chemical preservation system. Ascorbic acid is not generally considered an antimicrobial. Instead, ascorbic acid is understood to “preserve” food ingredients against oxidation. In this respect, ascorbic acid is understood to be “anti-oxidant” preservative.

[2] = tested on: bio-indicator organisms (Zygosaccharomyce baili, Brettanomyces species, Saccharomyces cerevisiae, Paecilomyces lilacinus, Zygosaccharomyces bisporus …); settings: FIG. 2a; absence of cinnamic acid; pH 3.4; 16 weeks
Description: A single preparation of base beverage was employed to prepare each of five tests and consisted of 4% apple juice, 68 g sucrose/L, 52 g glucose/L, 2 g fructose/L prepared in batch water that was formulated to 90 ppm hardness with calcium chloride and magnesium chloride. A pH of 3.4 was achieved through combinations of malic acid and sodium malate for all preparations regardless of the presence or absence of lauric arginate or cinnamic acid. The total combined quantity of sodium malate and malic acid was near constant, but the ratio of malic acid and malate varied slightly given the presence or absence of lauric arginate or cinnamic acid. […] Where required, lauric arginate or cinnamic acid was supplemented from separately prepared stock solutions. Dimethyl dicarbonate was delivered by means of hypodermic needle (Hamilton syringe) through septum that sealed the test vessel against loss of moisture. Dimethyl dicarbonate stock solution consisted of 1 ml of dimethyl dicarbonate (1.25 g) in 49 ml of 100% ethanol (25 mg/ml).
Each of the five tests employed the same bio-indicator organisms; Growth (+) versus no growth (−) established by visual inspection or spectrophotometrically. […]

[3] = Example 8: growth/no growth in energy beverage pH 2.85, 16 weeks; format: cell-based; settings: pH 2.9, read-out: minimum inhibitory concentration of DMDC required to preserve
Description: A single preparation of base beverage was employed to prepare each of five tests. The beverage formulation chosen mimics that of a Energy beverage and is composed per liter as follows: 209 mg Rebaudioside A (REB A), 248 mg Potassium Citrate 248 mg Flavor-vitamin mixture, 248 mg calcium lactate, 298 mg Xanthan gum, 668 mg citric acid 995 mg color, 995 mg Pomegranate flavor, 24900 mg erythritol. The ingredients were added to RO water adjusted to 90 ppm hardness with calcium chloride and magnesium chloride. The acidity of the product was adjusted to pH 2.85 with a mixture of citric acid and sodium citrate.
Each of the five tests employed the same bio-indicator organisms; Growth (+) versus no growth (−) established by visual inspection or spectrophotometrically. The organisms and the key (code) employed in FIGS. 7a-7e are as follows: Spores, M1 Paecilomyces/Byssochalmys nieva, Pespi isolate D16; C-8UP, Brettanomyces species, Pepsi Isolate; M6, Talaromyces flavus var. flavus ATCC 10512; Brettanomyces species, Pepsi isolate H2O2; Spores, M12 Penicillium camebertii (Pepsi isolate D1)”; an ascospore preparation of Saccharomyces cerevisiae strain 99(Spore) and Y3, Zygosaccharomyce baili Pepsi isolate 906;. Samples were incubated for period of 16 weeks at 25° C. in vessels protective against evaporation. The results are depicted in FIGS. 7a-7e.

[4] = tested on: bio-indicator organisms; mold strains M1 (Paecilomyces/Byssochalmys nieva) and M6 (Talaromyces flavus var. flavus); experiment: Example 6: growth/no growth in enhanced water product pH 4.5, 16 weeks; format: cell-based; settings: FIG. 5a; enhanced water pH 4.5; DMDC singular antimicrobial agent
Description: A single preparation of base beverage was employed to prepare each of five tests. The beverage formulation chosen mimics that of an enhanced water product and is composed per liter as follows 37.2 mg Acesulfame K+; 100mg Vitamin E acetate, 54.1 mg Vitamin B mix, 331 mg sucralose 748 mg grape flavor, 3236 mg of liquid sucrose, 26.5 mg antifoam, 20 mg polysorbate. The ingredients were added to RO water adjusted to 90 ppm hardness with calcium chloride and magnesium chloride. The acidity of the product was adjusted to pH 4.5 with a mixture of succinic acid and Sodium succinate dibasic hexadydrate. The total concentration of succinic acid in solution was approximately 8 mM.
Each of the five tests employed the same bio-indicator organisms; Growth (+) versus no growth (−) established by visual inspection or spectrophotometrically. The organisms and the key (code) employed in FIGS. 5a-5e are as follows: Spores, M1 Paecilomyces/Byssochalmys nieva, Pespi isolate D16; C-7UP, Brettanomyces species, Pepsi Isolate; Spores, M6, Talaromyces flavus var. flavus ATCC 10512; Brettanomyces species, Pepsi isolate H202; Acetobacter species, Pepsi isolate “Atlanta”; an ascospore preparation of Saccharomyces cerevisiae strain 99(Spore) and Y3, Zygosaccharomyce baili, Pepsi isolate 906;. Samples were incubated for period of 16 weeks at 25° C. in vessels protective against evaporation. […]

[5] = tested on: bio-indicator organisms; mold strains M1 (Paecilomyces/Byssochalmys nieva) and M6 (Talaromyces flavus var. flavus); experiment: Example 7: growth/no growth in green tea beverage pH 5.5, 16 weeks; format: cell-based; settings: pH 5.5, read-out: minimum inhibitory concentration of DMDC required to preserve
Description: A single preparation of base beverage was employed to prepare each of five tests. The beverage formulation chosen mimics that of a green tea beverage composed per liter as follows: 170 mg Citrus Pectin; 500 mg honey granules 550 mg Acerola Dry Vitamin C, 1,332 mg green tea solid, 2,046 mg tea flavor; 65,590 mg granulated sucrose. The ingredients were added to RO water adjusted to 90 ppm hardness with calcium chloride and magnesium chloride. The acidity of the product was adjusted to pH 5.5 with a mixture of succinic acid and sodium succinate dibasic hexadydrate. The total concentration of succinic acid in solution was approximately 8 mM.
Each of the five tests employed the same bio-indicator organisms; Growth (+) versus no growth (−) established by visual inspection or spectrophotometrically. The organisms and the key (code) employed in FIGS. 6a-6e are as follows: Spores, M1 Paecilomyces/Byssochalmys nieva, Pespi isolate D16; C-7UP, Brettanomyces species, Pepsi Isolate; Spores, M6, Talaromyces flavus var. flavus ATCC 10512; Brettanomyces species, Pepsi isolate H202; Acetobacter species, Pepsi isolate “Atlanta”; an ascospore preparation of Saccharomyces cerevisiae strain 99(Spore) and Y3, Zygosaccharomyce baili, Pepsi isolate 906;. Samples were incubated for period of 16 weeks at 25° C. in vessels protective against evaporation. The results are depicted in FIGS. 6a-6e.

[6] = tested on: vegetative forms of yeast, mold, and bacteria; settings: reported by the manufacturer of DMDC; cited from earlier work
[7] = tested on: bio-indicator organisms (Zygosaccharomyce baili, Brettanomyces species, Saccharomyces cerevisiae, Paecilomyces lilacinus, Zygosaccharomyces bisporus …); experiment: Example 4: efficacy of DMDC alone in commercial product types and apple juice medium, 16 weeks; format: cell-based
Description: The efficacy of DMDC in a range of existing commercial product types was established in order to establish a baseline for future testing of products in development. A separate test of efficacy of DMDC alone in the test apple juice medium is used in comparison. Simply, four different products that are packaged without preservatives (aseptic package) were purchased from local markets.
The base test beverage formulation (Apple Juice Medium) was prepared as in other tests herewithin, and consisted of 4% apple juice, 68 g sucrose/L, 52 g glucose/L, 2 g fructose/L prepared in batch water that was formulated to 90 ppm hardness with calcium chloride and magnesium chloride. A pH of 3.4 was achieved through combinations of malic acid and sodium malate
Product was transferred to test vessels and vessels were inoculated with bio-indicator organisms. Immediately after inoculation, the test vessels were sealed with septum seal that allowed dosing of DMDC by Hamilton syringe. Dimethyl dicarbonate stock solution consisted of 1 ml of dimethyl dicarbonate (1.25 g) in 49 ml of 100% ethanol (25 mg/ml). […] After dosing with DMDC, the content of each test vessel was immediately mixed by vortex mixing. All testing was performed at ambient and test solutions were at ambient. […]

Question: With `O=C1O[C@H]([C@@H](O)CO)C(O)=C1O` [ascorbic acid] as the molecule, how does the “effect on spore germination” value ([1]; ascorbic acid alone at 400 ppm) read?
Answer: able to retard germination

Question: With `C/C=C/C=C/C(=O)[O-].[K+]` [Potassium sorbate, Potassium Sorbate, reference compound] as the molecule, how does the “prevention of spore germination” value ([1]; Potassium sorbate alone at concentrations below 200 ppm) read?
Answer: unable to prevent spore germination

Question: For `COC(=O)OC(=O)OC` [DMDC, dimethyl dicarbonate], which “DMDC required to inhibit the growth of all bio-indicator organisms” value [2] is on record?
Answer: 0.95 mM

Question: What about the MIC [3] of the same molecule?
Answer: < 125 µg/mL

Question: And the “concentration of DMDC tolerated by M1 and M6” value [4]?
Answer: ≥ 200 ppm

Question: What about the MIC [5] of the same molecule?
Answer: > 225 µg/mL

Question: And the “concentration required to stabilize beverage for 16 weeks” value [6]?
Answer: at least 250 mg/liter

Question: What about the stability against spoilage ([7]; commercial tea beverage (pH 3.3) with honey, DMDC 2.61 mM (350 ppm)) of the same molecule?
Answer: unstable against spoilage

Question: What about the “DMDC concentration that stabilized the formulation” value ([7]; green tea formulation containing lemon flavor, DMDC alone) of the same molecule?
Answer: 0.75 mM
